The molecules below were run against T1, estrogen receptor derived from bovine uterus (Bos taurus, UniProt P49884) (assay: In vitro estrogen receptor binding assay). Settings: read-out: Estrogen receptor binding affinity: Ki.
T1 construct: estrogen receptor derived from bovine uterus was diluted with the assay buffer solution so that 10 to 20 μg total protein was present; from tissue; host or cells: bovine uterus
T1 sequence (P49884 1-596): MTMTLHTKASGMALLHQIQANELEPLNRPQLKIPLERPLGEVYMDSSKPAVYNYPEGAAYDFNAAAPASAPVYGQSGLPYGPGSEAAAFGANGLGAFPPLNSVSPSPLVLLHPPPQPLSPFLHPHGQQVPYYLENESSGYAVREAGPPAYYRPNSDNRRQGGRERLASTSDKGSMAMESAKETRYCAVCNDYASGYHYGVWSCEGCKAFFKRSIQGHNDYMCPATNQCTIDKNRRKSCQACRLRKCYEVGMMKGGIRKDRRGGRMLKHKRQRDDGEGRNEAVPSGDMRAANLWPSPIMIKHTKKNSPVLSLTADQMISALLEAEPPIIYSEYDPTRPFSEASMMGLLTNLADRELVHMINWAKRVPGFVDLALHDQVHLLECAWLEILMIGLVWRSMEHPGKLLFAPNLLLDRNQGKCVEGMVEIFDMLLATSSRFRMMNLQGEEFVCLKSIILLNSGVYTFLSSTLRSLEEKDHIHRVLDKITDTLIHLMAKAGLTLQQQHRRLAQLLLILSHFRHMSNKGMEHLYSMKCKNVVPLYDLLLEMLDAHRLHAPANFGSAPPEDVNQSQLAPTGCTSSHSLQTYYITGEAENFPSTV
Experimental: The binding affinity of the compound according to the present invention to estrogen receptor was measured using an in vitro estrogen receptor binding assay. The binding affinity measures the ability of the compound according to the present invention to remove [^3H]-estradiol from estrogen receptor derived from bovine uterus. The following materials were used in this assay: (1) the assay buffer solution was 20 mM Tris/HCl (pH 7.5) containing 1 mM dithiothreitol (DTT), 1 mM EDTA and 10% glycerol; (2) radioactive ligand was [^3H]-estradiol purchased from Amersham Life Science; (3) the cold ligand was diethylstilbestrol purchased from sigma (Sigma); and (4) the estrogen receptor was derived from bovine uterus. The compound to be tested was prepared as a 10% DMSO solution. [^3H]-estradiol was dissolved in the assay buffer solution so as to obtain a final concentration of 1 nM. […] Each plate contains total binding, non-specific binding and the binding which were not inhibited by various concentrations of the compound. The plate was incubated for 1 hour at room temperature. […] These mixtures were centrifuged, and the supernatant thereof was evaluated for its radioactivity using a liquid scintillation counter. Specific binding was calculated by subtracting non-specific binding dpm (counts remaining in the supernatant obtained by centrifugal separation of a reaction mixture containing estrogen receptor derived from bovine uterus, radioactive ligand and excess cold ligand) from the total binding dpm (counts remaining in the supernatant obtained by centrifugal separation of a reaction mixture containing estrogen receptor derived from bovine uterus and radioactive ligand only). The effectiveness of the compound was evaluated by Ki. […] C is the concentration of [^3H]-estradiol in the reaction mixture, and Kd is the [^3H]-estradiol dissociation constant. The Kd was determined by Scatchard analysis. That is to say, various concentrations of [^3H]-estradiol were used to measure the concentration of specifically bound [^3H]-estradiol, which served as the horizontal axis, the value which was obtained by dividing the concentration of specifically bound [^3H]-estradiol by the concentration [^3H]-estradiol not bound to the receptor served as the vertical axis to produce a plot, and the negative value of the inverse of the slope of the resulting straight line was used as Kd.
Molecule Oc1ccc(-c2nc3ccc(O)cc3s2)c(NCc2ccc(OCCN3CCCCC3)cc2)c1 [Example 319, 2-{4-Hydroxy-2-[4-(2-piperidin-1-ylethoxy)benzylamino]phenyl}benzothiazol-6-ol] has a Ki of 1.6 nM.
For Oc1ccc2c(c1)CCC(c1ccc(O)cc1NCc1ccc(OCCN3CCCCC3)cc1)=C2 [Example 130, 6-{4-Hydroxy-2-[4-(2-piperidin-1-ylethoxy)benzylamino]phenyl}-7,8-dihydronaphthalen-2-ol], the Ki was 8.2 nM.
CC1(C)c2ccc(O)cc2CCC1c1ccc(O)cc1Nc1ccc(OCCN2CCCCC2)c(F)c1 (centres unmarked) [Example 305, 6-{2-[3-Fluoro-4-(2-piperidin-1-ylethoxy)phenylamino]-4-hydroxyphenyl}-5,5-dimethyl-5,6,7,8-tetrahydronaphthalen-2-ol] gave a Ki of 8.6 nM.
CCn1ccc2c(O)ccc(C3CCc4cc(O)ccc4C3)c21 (centres unmarked) [Example 55, 1-Ethyl-7-(6-hydroxy-1,2,3,4-tetrahydronaphthalen-2-yl)-1H-indol-4-ol] showed a Ki of 84 nM.
With CCN(Cc1ccc(OC2CC3CCC(C2)N3C)c(F)c1)c1cc(O)ccc1C1CCc2cc(O)ccc2C1 (centres unmarked) [Example 367, 6-{2-{Ethyl[3-fluoro-4-(8-methyl-8-azabicyclo[3.2.1]oct-3-yloxy)benzyl]amino}-4-hydroxyphenyl}-5,6,7,8-tetrahydronaphthalen-2-ol] the Ki was 1.8 nM.
With COCCN(Cc1ccc(OCCN2CCCCC2)c(F)c1)c1cc(O)ccc1C1CCc2cc(O)ccc2C1 (centres unmarked) [Example 183, 6-{2-{[3-Fluoro-4-(2-piperidin-1-ylethoxy)benzyl](2-methoxyethyl)amino}-4-hydroxyphenyl}-5,6,7,8-tetrahydronaphthalen-2-ol] the Ki was 18 nM.
Oc1ccc(/C=C/c2ccc(O)cc2NCc2ccc(OCCN3CCCCC3)c(F)c2)cc1 [Example 349, 3-[3-Fluoro-4-(2-piperidin-1-ylethoxy)benzylamino]-4-[2-(4-hydroxyphenyl)vinyl]phenol] showed a Ki of 16 nM.
CCN(Cc1ccc(OCCN2CCCCC2)c(F)c1)c1ccc(F)cc1C1CCc2cc(O)ccc2C1 (centres unmarked) [Example 295, 6-{2-{Ethyl[3-fluoro-4-(2-piperidin-1-ylethoxy)benzyl]amino}-5-fluorophenyl}-5,6,7,8-tetrahydronaphthalen-2-ol] was tested, and the Ki was 17 nM.
Work on CCN(Cc1ccncc1)c1cc(O)ccc1C1CCc2cc(O)ccc2C1 (centres unmarked) [Example 54, 6-{2-[Ethyl(pyridin-4-ylmethyl)amino]-4-hydroxyphenyl}-5,6,7,8-tetrahydronaphthalen-2-ol] yielded a Ki of 32 nM.
For O=c1cccc(C2=Cc3ccc(O)cc3CCC2)n1Cc1ccc(OCCN2CCCCCC2)cc1 [Example 15, 1-[4-(2-Azepan-1-ylethoxy)benzyl]-6-(2-hydroxy-8,9-dihydro-7H-benzocyclohepten-6-yl)-1H-pyridin-2-one], the Ki was 60 nM.
CCNCCOc1ccc(CN(CC)c2cc(O)ccc2C2CCc3cc(O)ccc3C2)cc1 (centres unmarked) [Example 379, 6-{2-{Ethyl[4-(2-ethylaminoethoxy)benzyl]amino}-4-hydroxyphenyl}-5,6,7,8-tetrahydronaphthalen-2-ol] showed a Ki of 1.1 nM.
For CN(Cc1ccc(OCCN2CCCCC2)cc1)c1cc(O)ccc1-c1ccc2cc(O)ccc2c1 [Example 113, 6-{4-Hydroxy-2-{methyl[4-(2-piperidin-1-ylethoxy)benzyl]amino}phenyl}naphthalen-2-ol], the Ki was 1.6 nM.
With CN(CCc1ccc(O)cc1)c1cc(O)ccc1C1CCc2cc(O)ccc2C1 (centres unmarked) [Example 48, 6-{4-Hydroxy-2-{[2-(4-hydroxyphenyl)ethyl]methylamino}phenyl}-5,6,7,8-tetrahydronaphthalen-2-ol] the Ki was 13 nM.
For CCN(Cc1ccc(OCCN2CCCCC2)cc1)c1cc(O)ccc1CC1CCc2cc(O)ccc2C1 (centres unmarked) [Example 791, 6-{2-{Ethyl[4-(2-piperidin-1-ylethoxy)benzyl]amino}-4-hydroxybenzyl}-5,6,7,8-tetrahydronaphthalen-2-ol], the Ki was 9.8 nM.
In the case of CN(Cc1ccc(OCCN2CCCCC2)cc1)c1cc(O)ccc1CCc1ccc(O)cc1 [Example 343, 4-[2-(4-Hydroxyphenyl)ethyl]-3-{methyl-[4-(2-piperidin-1-ylethoxy)benzyl]amino}phenol], the Ki is reported as 31 nM.
With CCN(Cc1ccc(OCCN2CCCCCC2)cc1)c1cc(O)ccc1C1CCCc2cc(O)ccc2C1 (centres unmarked) [Example 298, 6-{2-{[4-(2-Azepan-1-ylethoxy)benzyl]ethylamino}-4-hydroxyphenyl}-6,7,8,9-tetrahydro-5H-benzocyclohepten-2-ol] the Ki was 13 nM.
CCN(Cc1ccc(OCCN2CCCCCC2)cc1)c1cc(O)ccc1C1=Cc2ccc(O)cc2CC1(C)C [Example 311, 6-{2-{[4-(2-Azepan-1-ylethoxy)benzyl]ethylamino}-4-hydroxyphenyl}-7,7-dimethyl-7,8-dihydronaphthalen-2-ol] gave a Ki of 5.1 nM.
For CCN(Cc1ccccc1)c1cc(O)ccc1C1CCc2cc(O)ccc2C1 (centres unmarked) [Example 45, 6-[2-(Benzylethylamino)-4-hydroxyphenyl]-5,6,7,8-tetrahydronaphthalen-2-ol], the Ki was 8.4 nM.
With CCN(CC)c1cc(O)ccc1C1CCc2cc(O)ccc2C1 (centres unmarked) [Example 44, 6-(2-Diethylamino-4-hydroxyphenyl)-5,6,7,8-tetrahydronaphthalen-2-ol] the Ki was 21 nM.
For CC(C)(Cc1ccc(O)cc1Oc1ccc(OCCN2CCCCC2)cc1)c1ccc(O)cc1 [Example 776, 4-[2-(4-Hydroxyphenyl)-2-methylpropyl]-3-[4-(2-piperidin-1-ylethoxy)phenoxy]phenol], the Ki was 6.3 nM.
With CCN(Cc1ccc(OCCN2CCCCC2)c(F)c1)c1cc(O)ccc1-c1cc2ccc(O)cc2s1 [Example 322, 2-{2-{Ethyl[3-fluoro-4-(2-piperidin-1-ylethoxy)benzyl]amino}-4-hydroxyphenyl}benzo[b]thiophen-6-ol] the Ki was 3.1 nM.
Work on Oc1ccc2c(c1)CCN(c1cc(O)ccc1Cc1ccc(OCCN3CCCCC3)cc1)CC2 [Example 21, 3-{5-Hydroxy-2-[4-(2-piperidin-1-ylethoxy)benzyl]phenyl}-2,3,4,5-tetrahydro-1H-benz[d]azepin-7-ol] yielded a Ki of 47 nM.
CCN(Cc1ccc(OCCN2CCCCCC2)cc1)c1cc(O)ccc1C1CCN(c2cccc(O)c2)C1 (centres unmarked) [Example 329, 3-{[4-(2-Azepan-1-ylethoxy)benzyl]ethylamino}-4-[1-(3-hydroxyphenyl)pyrrolidin-3-yl]phenol] gave a Ki of 94 nM.
For CCN(Cc1ccc(OCCN2CCCCCC2)cc1)c1cccc(C)c1C1CCc2cc(O)ccc2C1 (centres unmarked) [Example 293, 6-{2-{[4-(2-Azepan-1-ylethoxy)benzyl]ethylamino}-6-methylphenyl}-5,6,7,8-tetrahydronaphthalen-2-ol], the Ki was 32 nM.
Oc1ccc2c(c1)CCC(c1ccc(O)cc1N1Cc3ccc(OCCN4CCCCC4)cc3C1)C2 (centres unmarked) [Example 338, 6-{4-Hydroxy-2-[5-(2-piperidin-1-ylethoxy)-1,3-dihydroisoindol-2-yl]phenyl}-5,6,7,8-tetrahydronaphthalen-2-ol] gave a Ki of 22 nM.
OCCN(Cc1ccc(OCCN2CCCCCC2)cc1)c1cc(O)ccc1C1CCc2cc(O)ccc2C1 (centres unmarked) [Example 177, 6-{2-{[4-(2-Azepan-1-ylethoxy)benzyl](2-hydroxyethyl)amino}-4-hydroxyphenyl}-5,6,7,8-tetrahydronaphthalen-2-ol] showed a Ki of 18 nM.
With CCN1CCN(CCOc2ccc(CN(CC)c3cc(O)ccc3C3CCc4cc(O)ccc4C3)cc2)CC1 (centres unmarked) [Example 373, 6-{2-{Ethyl{4-[2-(4-ethylpiperazin-1-yl)ethoxy]benzyl}amino}-4-hydroxyphenyl}-5,6,7,8-tetrahydronaphthalen-2-ol] the Ki was 5 nM.
With CC(C)N(CCOc1ccc(CCc2cc(O)ccc2C2CCc3cc(O)ccc3C2)cc1)C(C)C (centres unmarked) [Example 357, 6-{2-{2-[4-(2-Diisopropylaminoethoxy)phenyl]ethyl}-4-hydroxyphenyl}-5,6,7,8-tetrahydronaphthalen-2-ol] the Ki was 8.2 nM.
With O=C(c1ccc(OCCN2CCCCC2)cc1)c1cc(O)ccc1-c1ccc2cc(O)ccc2c1 [Example 8, [5-Hydroxy-2-(6-hydroxynaphthalen-2-yl)phenyl][4-(2-piperidin-1-yl-ethoxy)phenyl]methanone] the Ki was 0.64 nM.

From patent publication US8399520B2, “Selective estrogen receptor modulator” (Eisai R&D Management Co., Ltd., priority 2002, dated 2013)
